Data as given in patent US12390485B2, “Compounds and methods for suppressing an immune response to substances containing polyethylene glycol” (aAb Therapeutics, LLC, priority 2020, dated 2025).

How the values were obtained:
[1] = tested on: anti-PEG antibody response; assay: Prophylaxis model: anti-PEG antibody response in PEG-naïve mice immunized with PEG-KLH (serum ELISA); type: in vivo, BALB/c mice
Protocol: Pre-immunization blood samples were collected by retroorbital bleeding on Day −5. All other blood draws were collected on the days indicated. For testing, pools of serum from each group (n=5) were generated by mixing equal volumes of serum from each mouse in the group. Treatments were as outlined below.
(§1) ELISAs were carried out as follows. Plates were coated overnight at 4° C. with 0.5 mcg antigen in 100 uL sodium carbonate coating buffer, then washed twice with PBS and blocked with 300 uL Blocking Buffer (nonfat dry milk-PBS (5% w/v) or 1× fish gel (Rockland immunochemicals)) at room temperature for 1 hr. […] After washing 3× for 5 minutes each with PBS, 100 uL TMBE was added to each well and a kinetic read taken for 5 minutes. Plates were allowed to continue the color development reaction for a total of 30 minutes at which time 100 uL stop solution was added and plates read. […]
In the present experiment, we first studied the anti-PEG IgM antibody response. […] Anti-PEG IgM antibodies were then measured against PEG-BSA by ELISA from bleeds collected on Day −5 and Day 9 (serum dilution 1:500)(FIG. 2).
In the present experiment, detection of IgG antibodies on Day 9 is not generally expected as this antibody subclass generally takes two weeks or more to emerge after immunization. […] The anti-PEG IgG response was assessed by ELISA as described above, using a serum dilution of 1:500.

[2] = tested on: anti-PEG antibody response; assay: Treatment model: mice with existing anti-PEG antibody response from PEG-KLH (serum ELISA); type: in vivo, BALB/c mice; conditions: PEG alone before and after PEG-KLH boosting (P/P), Day 21 and Day 28; bleed Day 30; serum 1:500; FIG. 6
From the text: Male BALB/c mice (aged 6-8 weeks) were immunized intraperitoneally (i.p.) with PEG conjugated to KLH (PEG-KLH) using Complete Freund's adjuvant on Day 1 (50 mcg) and boosted with the same conjugate using Incomplete Freund's adjuvant on Day 18 (25 mcg). Pre-immunization blood samples were collected by retroorbital bleeding on Day −5. All other blood draws were collected on the days indicated. For testing, pools of serum from each group (n=5) were generated by mixing equal volumes of serum from each mouse in the group. Treatments were as outlined below.
as §1
In this treatment scenario, to generate anti-PEG antibodies prior to treatment, mice were first immunized with PEG-KLH conjugate on Day 0 and boosted on Day 22 (FIG. 5). […] Anti-PEG IgG antibodies were measured on Day 30 by ELISA as indicated above (serum diluted 1:500). […]

MeO-23PEG-Ethanolamine
anti-PEG IgG antibodies (ELISA) ([1]; treatment Day 0 and Day 7, additional PEG-KLH immunization Day 22, bleed Day 26, serum 1:500, FIG. 4): readily detected
anti-PEG IgM antibodies (ELISA against PEG-BSA) ([1]; treatment i.p. Day 0 and Day 7, PEG-KLH Day 1, bleed Day 9, pooled serum 1:500, FIG. 3): readily detected
anti-PEG IgG antibodies [2]: had no effect on anti-PEG IgG antibodies
